Where two headings read alike, the source gives them in different places.
Tests used:
[1] = total clearance after intravenous administration to PXB-mice; assay type: in vivo, PXB‐mice (chimeric mice with humanized livers); conditions: intravenous cassette dose 0.1 mg/kg, N = 3, noncompartmental analysis
[2] = prediction of CLt,human by single-species allometric scaling from PXB-mice; design: species or system humans; conditions: for Predicted CLt,human, PXB‐SSS: scaled from CLt in PXB-mice, exponent 0.75; for Fold error (predicted/observed), PXB‐SSS: predicted/observed CLt,human
[3] = prediction of CLt,human by physiologically based scaling using PXB-mice; design: species or system humans; conditions: for Predicted CLt,human, PXB‐PBS: from CLt in PXB-mice, dispersion model, CLint per hepatocyte assumed equal; for Fold error (predicted/observed), PXB‐PBS: predicted/observed CLt,human
[4] = prediction of CLt,human by in vitro–in vivo extrapolation; design: species or system humans; conditions: for Predicted CLt,human, IVIVE: from in vitro CLint per human hepatocyte, dispersion model
[5] = blood‐to‐plasma concentration ratio, ref Table S1; cited from earlier work
[6] = ref Table S1; cited from earlier work
[7] = ref Table S1; cited from earlier work; remark: listed apart in the source
[8] = ref Table S1; cited from earlier work; remark: listed apart in the source
[9] = humans; ref Table S1; cited from earlier work
[10] = prediction of CLt,human by multispecies allometric scaling, rule of exponent; conditions: for Predicted CLt,human, ROE: from CLt in rats, monkeys and dogs; for Fold error (predicted/observed), ROE: predicted/observed CLt,human
[11] = for Predicted CLt,human, FCIM: from CLt in rats, monkeys and dogs and fu,p ratio rat/human; for Fold error (predicted/observed), FCIM: predicted/observed CLt,human
[12] = fraction unbound in plasma, equilibrium dialysis; assay type: in vitro ADME, humans; conditions: fraction unbound in human plasma
[13] = total clearance after intravenous administration to rats; assay type: in vivo, Sprague–Dawley rats; conditions: intravenous cassette dose 0.1 mg/kg, N = 3
[14] = tested on: cryopreserved human hepatocytes; experiment: in vitro metabolic stability assay using cryopreserved human hepatocytes; conditions: for turnover during a 4‐h incubation in the human hepatocyte assay: criterion for low‐CLint compounds: no significant turnover (<20%); for CLint per hepatocyte, Humans: in vitro, human hepatocytes, corrected with fraction unbound in hepatocytes and medium; for % remaining after a 4‐h incubation: cryopreserved human hepatocytes, 0.5 million cells/ml, 0.1 or 1 µmol/l
[15] = fraction unbound in rat plasma; ref Table S1; cited from earlier work
[16] = total clearance after intravenous administration to monkeys; assay type: in vivo, cynomolgus monkeys; conditions: intravenous cassette dose 0.1 mg/kg, N = 3

| SMILES | CLt, PXB‐mice [1] | Predicted CLt,human, PXB‐SSS [2] | Predicted CLt,human, PXB‐PBS [3] | Predicted CLt,human, IVIVE [4] | R b, Humans [5] | CLt, Monkeys [7] | CLt, Dogs [8] | Observed CLt,human [9] | Predicted CLt,human, ROE [10] | Predicted CLt,human, FCIM [11] | f u,p, Humans [12] | CLt, Rats [13] | turnover during a 4‐h incubation in the human hepatocyte assay [14] | f u,p, Rats [15] | CLint per hepatocyte, Humans [14] | other results |
| --- | --- | --- | --- | --- | --- | --- | --- | --- | --- | --- | --- | --- | --- | --- | --- | --- |
| CN1C(=O)CN=C(c2ccccc2)c2cc(Cl)ccc21 [Diazepam] | 42.147 mL/min/kg | 5.68 mL/min/kg | 7.52 mL/min/kg | 0.69 mL/min/kg | 0.71 | 17.90 mL/min/kg | 46.71 mL/min/kg | 0.38 mL/min/kg | 12.46 mL/min/kg | 2.53 mL/min/kg | – | – | – | – | – | CLt, Rats [6]: 61.51 mL/min/kg |
| Nc1ccc(S(=O)(=O)c2ccc(N)cc2)cc1 [Dapsone] | 4.40 mL/min/kg | 0.60 mL/min/kg | 0.67 mL/min/kg | – | – | – | – | – | 0.91 mL/min/kg | 2.01 mL/min/kg | 0.381 | 6.87 mL/min/kg | < 20% | – | – | – |
| CNC(=C[N+](=O)[O-])NCCSCc1ccc(CN(C)C)o1 [Ranitidine] | 131.02 mL/min/kg | 16.9 mL/min/kg | 16.4 mL/min/kg | – | – | – | – | – | 5.4 mL/min/kg | 11.1 mL/min/kg | 1.000 | 99.88 mL/min/kg | – | 0.900 | – | – |
| CCOc1ccccc1OC(c1ccccc1)C1CNCCO1 (centres unmarked) [Reboxetine] | – | 2.39 mL/min/kg | 2.79 mL/min/kg | 1.37 mL/min/kg | – | 14.94 mL/min/kg | 22.39 mL/min/kg | 0.82 mL/min/kg | 9.52 mL/min/kg | 1.82 mL/min/kg | – | – | – | – | 13.9 µl/min/1 × 10^6 cells | CLt, Rats [6]: 61.51 mL/min/kg |
| CN[C@@H]1C[C@H]2O[C@@](C)([C@@H]1OC)n1c3ccccc3c3c4c(c5c6ccccc6n2c5c31)C(=O)N[C@H]4O [UCN−01, 7‐hydroxystaurosporine] | 0.0369 mL/min/kg | 0.0050 mL/min/kg | 0.0056 mL/min/kg | 0.6186 mL/min/kg | – | – | 10.27 mL/min/kg | 0.0037 mL/min/kg | 1.5640 mL/min/kg | 1.3765 mL/min/kg | 0.003 | 77.37 mL/min/kg | – | 0.0175 | 83.5 µl/min/1 × 10^6 cells | CLt, Monkeys [16]: 3.36 mL/min/kg; Fold error (predicted/observed), PXB‐SSS [2]: 1.35; Fold error (predicted/observed), PXB‐PBS [3]: 1.52; Fold error (predicted/observed), IVIVE ([4]; predicted/observed CLt,human): 167.20; % remaining after a 4‐h incubation [14]: 4%; Fold error (predicted/observed), ROE [10]: 422.70; Fold error (predicted/observed), FCIM [11]: 372.03 |
| CC(C)(C)NC[C@H](O)COc1nsnc1N1CCOCC1 [Timolol] | 130.05 mL/min/kg | 16.8 mL/min/kg | 13.7 mL/min/kg | – | 0.84 | 13.6 mL/min/kg | – | 8.5 mL/min/kg | – | – | 0.715 | 137.02 mL/min/kg | < 20% | 0.760 | – | Fold error (predicted/observed), PXB‐SSS [2]: 1.98; Fold error (predicted/observed), PXB‐PBS [3]: 1.62 |
| Cn1c(=O)c2[nH]cnc2n(C)c1=O [Theophylline] | 4.70 mL/min/kg | 0.60 mL/min/kg | 0.72 mL/min/kg | – | 0.85 | 1.08 mL/min/kg | 1.73 mL/min/kg | – | 0.68 mL/min/kg | – | – | 1.91 mL/min/kg | < 20% | – | – | – |
| COc1cc2nc(N3CCN(C(=O)C4COc5ccccc5O4)CC3)nc(N)c2cc1OC (centres unmarked) [Doxazosin] | 34.245 mL/min/kg | 4.61 mL/min/kg | 5.65 mL/min/kg | 5.62 mL/min/kg | – | – | – | – | 3.93 mL/min/kg | 6.20 mL/min/kg | 0.066 | – | – | – | 41.5 µl/min/1 × 10^6 cells | – |
| CCCCNC(=O)NS(=O)(=O)c1ccc(C)cc1 [Tolbutamide] | 0.58 mL/min/kg | 0.074 mL/min/kg | 0.088 mL/min/kg | – | – | – | – | – | 0.040 mL/min/kg | – | – | 0.39 mL/min/kg | < 20% | – | – | CLt, Monkeys [16]: 0.0456 mL/min/kg |
| COc1ccc2cc([C@H](C)C(=O)O)ccc2c1 [(S)‐Naproxen] | 0.556 mL/min/kg | 0.072 mL/min/kg | 0.085 mL/min/kg | – | 0.55 | 0.83 mL/min/kg | 0.04 mL/min/kg | 0.11 mL/min/kg | 0.051 mL/min/kg | – | – | 0.41 mL/min/kg | – | – | – | – |
| CN1C(C(=O)Nc2ccccn2)=C(O)c2sccc2S1(=O)=O [Tenoxicam] | 0.2878 mL/min/kg | 0.039 mL/min/kg | 0.044 mL/min/kg | – | 0.67 | – | 0.104 mL/min/kg | 0.03 mL/min/kg | 0.029 mL/min/kg | 0.085 mL/min/kg | 0.015 | 0.49 mL/min/kg | < 20% | 0.030 | – | CLt, Monkeys [16]: 0.061 mL/min/kg; Fold error (predicted/observed), PXB‐SSS [2]: 1.29; Fold error (predicted/observed), PXB‐PBS [3]: 1.46; discrepancy between observed and predicted CLt,human, ROE approach [10]: more than 3 fold; Fold error (predicted/observed), ROE [10]: 0.98; discrepancy between observed and predicted CLt,human, FCIM approach [11]: more than 3 fold; Fold error (predicted/observed), FCIM [11]: 2.83 |
| Cc1cc(=O)n(-c2ccccc2)n1C [Antipyrine] | 4.60 mL/min/kg | 0.59 mL/min/kg | 0.71 mL/min/kg | – | 1 | 11.5 mL/min/kg | 7.22 mL/min/kg | 0.64 mL/min/kg | 3.32 mL/min/kg | 3.31 mL/min/kg | 0.990 | 7.86 mL/min/kg | < 20% | 0.690 | – | Fold error (predicted/observed), PXB‐SSS [2]: 0.92; Fold error (predicted/observed), PXB‐PBS [3]: 1.10; discrepancy between observed and predicted CLt,human, ROE approach [10]: more than 3 fold; Fold error (predicted/observed), ROE [10]: 5.19; discrepancy between observed and predicted CLt,human, FCIM approach [11]: more than 3 fold; Fold error (predicted/observed), FCIM [11]: 5.17 |
| CC(=O)C[C@@H](c1ccccc1)c1c(O)c2ccccc2oc1=O [(S)‐Warfarin] | 0.484 mL/min/kg | 0.062 mL/min/kg | 0.074 mL/min/kg | – | 0.55 | – | – | 0.055 mL/min/kg | 0.417 mL/min/kg | 0.330 mL/min/kg | – | 0.21 mL/min/kg | < 20% | – | – | % remaining after a 4‐h incubation [14]: 80%; discrepancy between observed and predicted CLt,human, ROE approach [10]: more than 3 fold; discrepancy between observed and predicted CLt,human, FCIM approach [11]: more than 3 fold |
| CC(C)N(CCC(C(N)=O)(c1ccccc1)c1ccccn1)C(C)C (centres unmarked) [Disopyramide] | 28.86 mL/min/kg | 3.72 mL/min/kg | 4.63 mL/min/kg | 1.24 mL/min/kg | 1.2 | 19 mL/min/kg | 29 mL/min/kg | 0.9 mL/min/kg | 7.36 mL/min/kg | – | 0.161 | 179.46 mL/min/kg | – | 0.610 | 3.2 µl/min/1 × 10^6 cells | – |
| COc1ccccc1Oc1c(NS(=O)(=O)c2ccc(C(C)(C)C)cc2)nc(-c2ncccn2)nc1OCCO [Bosentan] | 8.78 mL/min/kg | 1.18 mL/min/kg | 1.39 mL/min/kg | 0.68 mL/min/kg | 0.48 | 20.6 mL/min/kg | 1.72 mL/min/kg | 2.1 mL/min/kg | 1.68 mL/min/kg | 5.37 mL/min/kg | – | – | – | – | 12.3 µl/min/1 × 10^6 cells | CLt, Rats [6]: 16.40 mL/min/kg |
